This passage reports IC50 results from article PMC3220491 (The Journal of Biological Chemistry, 2011).

Assay in all cases: SAT activity, acetyl-CoA decrease at […] nm
The target in test [1] is T1, TgSAT-p (Noccaea goesingensis, UniProt Q6IWF9).
T1 sequence (Q6IWF9 1-319): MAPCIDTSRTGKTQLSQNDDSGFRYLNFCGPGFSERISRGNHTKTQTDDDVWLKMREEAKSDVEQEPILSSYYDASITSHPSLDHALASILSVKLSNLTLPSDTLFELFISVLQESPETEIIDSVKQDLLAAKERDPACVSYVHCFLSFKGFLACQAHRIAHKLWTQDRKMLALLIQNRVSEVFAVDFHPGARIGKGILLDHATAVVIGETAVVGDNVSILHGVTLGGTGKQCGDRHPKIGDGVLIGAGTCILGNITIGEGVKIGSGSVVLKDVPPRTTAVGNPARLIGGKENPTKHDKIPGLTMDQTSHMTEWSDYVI
Type of test: biochemical.

The subject of test [2] is At-N/Tg-C. Type of test: biochemical, Arabidopsis thaliana; Noccaea goesingensis. The note with it: 1 mM L-serine, 0.1 mM acetyl-CoA, 50 mM Tris-HCl pH 8.0, room temperature; feedback inhibition.
Test [3] deals with T2, AtSAT-c (Arabidopsis thaliana, UniProt Q42538, C268P).
T2 sequence (Q42538 1-312 C268P): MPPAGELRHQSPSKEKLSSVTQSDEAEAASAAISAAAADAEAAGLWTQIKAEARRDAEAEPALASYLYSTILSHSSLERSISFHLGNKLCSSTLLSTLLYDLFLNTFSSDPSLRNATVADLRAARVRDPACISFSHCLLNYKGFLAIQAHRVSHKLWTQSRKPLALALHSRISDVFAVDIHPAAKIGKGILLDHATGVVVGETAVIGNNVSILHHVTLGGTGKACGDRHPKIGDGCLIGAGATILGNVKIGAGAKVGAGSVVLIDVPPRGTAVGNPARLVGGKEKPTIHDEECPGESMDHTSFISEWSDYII
Type of test: biochemical.

Test [4] has as its system Tg-N/At-C. The class given is biochemical, Noccaea goesingensis; Arabidopsis thaliana. Conditions: 1 mM L-serine, 0.1 mM acetyl-CoA, 50 mM Tris-HCl pH 8.0, room temperature; feedback inhibition.
For test [5], the target named is T3, TgSAT-m (Noccaea goesingensis, UniProt Q6IWG0).
T3 sequence (Q6IWG0 1-395): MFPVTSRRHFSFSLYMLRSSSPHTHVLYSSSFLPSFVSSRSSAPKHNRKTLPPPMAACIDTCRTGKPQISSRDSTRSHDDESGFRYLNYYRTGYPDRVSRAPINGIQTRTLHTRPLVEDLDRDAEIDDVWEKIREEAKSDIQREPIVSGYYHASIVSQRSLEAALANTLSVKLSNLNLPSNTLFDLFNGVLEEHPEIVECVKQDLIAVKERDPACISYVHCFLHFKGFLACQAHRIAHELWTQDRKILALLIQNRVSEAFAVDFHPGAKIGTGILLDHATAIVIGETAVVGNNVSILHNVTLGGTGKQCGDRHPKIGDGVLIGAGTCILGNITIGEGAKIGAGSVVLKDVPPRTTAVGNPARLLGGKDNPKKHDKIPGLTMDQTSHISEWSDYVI
The class given is biochemical.

For test [6], the target named is T4, AtSAT-c (Arabidopsis thaliana, UniProt Q42538, C268P/G270A).
T4 sequence (Q42538 1-312 C268P/G270A): T2 sequence (Q42538 1-312 C268P) with G270A
Type of test: biochemical.

For test [7], the target named is T5, TgSAT-c (Noccaea goesingensis, UniProt Q6IWF8).
T5 sequence (Q6IWF8 1-311): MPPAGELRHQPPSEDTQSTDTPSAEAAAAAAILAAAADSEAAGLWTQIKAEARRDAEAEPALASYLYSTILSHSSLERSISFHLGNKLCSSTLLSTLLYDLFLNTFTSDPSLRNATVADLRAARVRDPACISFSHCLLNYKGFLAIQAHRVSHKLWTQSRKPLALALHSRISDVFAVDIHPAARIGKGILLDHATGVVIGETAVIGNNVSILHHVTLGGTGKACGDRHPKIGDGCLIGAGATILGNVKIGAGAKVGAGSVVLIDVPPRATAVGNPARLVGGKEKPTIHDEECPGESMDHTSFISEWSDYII
The class given is biochemical.

Test [8] addresses T6, AtSAT-c (Arabidopsis thaliana, UniProt Q42538, G270A).
T6 sequence (Q42538 1-312 G270A): T2 sequence (Q42538 1-312 C268P) with P268C, G270A
The class given is biochemical.

In test [9] the target is T7, AtSAT-c (Arabidopsis thaliana, UniProt Q42538).
T7 sequence (Q42538 1-312): T2 sequence (Q42538 1-312 C268P) with P268C
The class given is biochemical.

Where a chain is given by its changes, count along the chain named.

The term IC50 denotes the concentration that inhibits the measured activity by half. A higher IC50 goes with weaker potency. Turning to `N[C@@H](CS)C(=O)O` [L-Cys], the half-inhibitory concentration (IC50) in [1] is > 100 µM; in [2] it was > 100 µM; in [3] it was 83.9 µM; in [4] it was 3.4 µM; in [5] it was > 100 µM; in test [6] it was > 100 µM. Moreover, the IC50 in test [7] was > 100 µM; in test [8], 17.7 µM; in test [9], 3.3 µM.
